Values quoted from earlier work as cited in patent US10507205B2, “Methods of treating opiate dependency and preventing non-oral opiate abuse among opiate addicts” (PURDUE PHARMACEUTICAL PRODUCTS L.P., priority 2006, dated 2019).

Conditions: pronounced first-pass metabolism, 'sometimes less than 5%'

C=CCN1CCC23c4c5ccc(O)c4OC2C(=O)CCC3(O)C1C5 (stereo not shown) [naloxone, Naloxone]
bioavailability of orally administered naloxone: less than 5%
